{"source": "patent US6867197B1", "about": "“Method of targeting conjugate molecules to mitochondria” (Mitokor, priority 1995, dated 2005)", "origin": "cited, not measured here", "tested_on": "mitochondria", "settings": "high concentrations; NAO is a mitochondrial toxin at these concentrations"}
{"compound": "CCCCCCCCC[n+]1c2cc(N(C)C)ccc2cc2ccc(N(C)C)cc21", "note": "[NAO, 10N-nonylacridine orange]", "values": [{"measurement": "concentrations at which electron transport, ATP hydrolysis and Pi-transport are inhibited and respiration disrupted", "result": "3 to 10", "unit": "µM"}]}
